Source: patent US9493455B2, “Azaindole derivatives as inhibitors of protein kinases” (ORIBASE PHARMA, priority 2012, dated 2016)

What was measured:
ABL = molecular target: T1, ABL (Homo sapiens, UniProt P00519); experiment: In vitro kinase assay (Z′-LYTE); assay type: biochemical; conditions: read-out: % of inhibition of the kinase compared to the control
T1 construct: purchased Invitrogen
Method: (§1) The inhibitory activity of the compounds on several kinases including BRAF, EGFR (ErbB1), EGFR (ErbB1) T790M L858R, FGFR2, KDR (VEGFR2), PDGFRA (PDGFR alpha), SRC and other was evaluated by Invitrogen using the Z′-LYTE® technology. Briefly, the Z′-LYTE® biochemical assay employs a fluorescence-based, coupled-enzyme format and is based on the differential sensitivity of phosphorylated and non-phosphorylated peptides to proteolytic cleavage. The peptide substrate is labeled with two fluorophores—one at each end—that make up a FRET pair. A ratiometric method, which calculates the ratio (the Emission Ratio) of donor emission to acceptor emission after excitation of the donor fluorophore at 400 nm, is used to quantitate reaction progress.
(§2) The compounds are screened in 1% DMSO (final) in the well. For 10 point titrations, 3-fold serial dilutions are conducted from the starting concentration. All Peptide/Kinase Mixtures are diluted to a 2× working concentration in the appropriate Kinase Buffer. All ATP Solutions are diluted to a 4× working concentration in Kinase Buffer (50 mM HEPES pH 7.5, 0.01% BRIJ-35, 10 mM MgCl2, 1 mM EGTA). ATP Km apparent is previously determined using a Z′-LYTE® assay.
(§3) Each compound was incubated at a concentration of 100 nM (excepted to test the activity against ABL and ABL T315I for which the compounds were incubated at a concentration of 10 μM) and the tables B1 to B12 summarize the results obtained showing the inhibitory power of a compound. The inhibitory activity of OR0512 was also investigated using the same assays and the kinases for which activity was inhibited at more than 50% at the concentration of 100 nM of OR0512 are listed in the table B13.

ABL T315I = molecular target: T2, ABL T315I (Homo sapiens, UniProt P00519, T315I); experiment: In vitro kinase assay (Z′-LYTE); assay type: biochemical; conditions: read-out: % of inhibition of the kinase compared to the control
T2 construct: purchased Invitrogen
Method: as §1, §2, §3

BRAF = molecular target: T3, BRAF (Homo sapiens, UniProt P15056); experiment: In vitro kinase assay (Z′-LYTE); assay type: biochemical; conditions: compound 100 nM; ATP 100 μM; read-out: % of inhibition of the kinase compared to the control
T3 construct: purchased Invitrogen
Method: as §1, §2, §3

EGFR (ErbB1) = molecular target: T4, EGFR (ErbB1) (Homo sapiens, UniProt P00533); experiment: In vitro kinase assay (Z′-LYTE); assay type: biochemical; conditions: read-out: % of inhibition of the kinase compared to the control
T4 construct: purchased Invitrogen
Method: as §1, §2, §3

EGFR (ErbB1) T790M L858R = molecular target: T5, EGFR (ErbB1) T790M L858R (Homo sapiens, UniProt P00533, L858R/T790M); experiment: In vitro kinase assay (Z′-LYTE); assay type: biochemical; conditions: read-out: % of inhibition of the kinase compared to the control
T5 construct: purchased Invitrogen
Method: as §1, §2, §3

FGFR1 = molecular target: T6, FGFR1 (Homo sapiens, UniProt P11362); experiment: In vitro kinase assay (Z′-LYTE); assay type: biochemical; conditions: read-out: % of inhibition of the kinase compared to the control
T6 construct: purchased Invitrogen
Method: as §1, §2, §3

FGFR2 = molecular target: T7, FGFR2 (Homo sapiens, UniProt P21802); experiment: In vitro kinase assay (Z′-LYTE); assay type: biochemical; conditions: read-out: % of inhibition of the kinase compared to the control
T7 construct: purchased Invitrogen
Method: as §1, §2, §3

KDR (VEGFR2) = molecular target: T8, KDR (VEGFR2) (Homo sapiens, UniProt P35968); experiment: In vitro kinase assay (Z′-LYTE); assay type: biochemical; conditions: read-out: % of inhibition of the kinase compared to the control
T8 construct: purchased Invitrogen
Method: as §1, §2, §3

PDGFRA (PDGFR alpha) = molecular target: T9, PDGFRA (PDGFR alpha) (Homo sapiens, UniProt P16234); experiment: In vitro kinase assay (Z′-LYTE); assay type: biochemical; conditions: read-out: % of inhibition of the kinase compared to the control
T9 construct: purchased Invitrogen
Method: as §1, §2, §3

PDGFRB = molecular target: T10, PDGFRB (Homo sapiens, UniProt P09619); experiment: In vitro kinase assay (Z′-LYTE); assay type: biochemical; conditions: read-out: % of inhibition of the kinase compared to the control
T10 construct: purchased Invitrogen
Method: as §1, §2, §3

SRC = molecular target: T11, SRC (Homo sapiens, UniProt P12931); experiment: In vitro kinase assay (Z′-LYTE); assay type: biochemical; conditions: read-out: % of inhibition of the kinase compared to the control
T11 construct: purchased Invitrogen
Method: as §1, §2, §3

VEGFR1 = molecular target: T12, VEGFR1 (Homo sapiens, UniProt P17948); experiment: In vitro kinase assay (Z′-LYTE); assay type: biochemical; conditions: read-out: % of inhibition of the kinase compared to the control
T12 construct: purchased Invitrogen
Method: as §1, §2, §3

A549 = experiment: In vitro cell proliferation assay (MTT); assay type: cell-based; conditions: Homo sapiens, A549, 72 h
Method: (§4) Cancer cell lines (5×10^3 cells per well) or HUVEC (1×10^4 cells per well) or HRMEC (1×10^4 cells per well) were distributed in 96-well plates and incubating in duplicate with escalating concentrations (10 nM to 3 μM) of compounds for 72 hr. Cell proliferation was measured using MTT (3 [4,5-dimethylthiazol-2-yl]-2,5-diphenyltetrazolium bromide).

BxPC-3 = experiment: In vitro cell proliferation assay (MTT); assay type: cell-based; conditions: Homo sapiens, BXPC-3, 72 h
Method: as §4

H1975 = experiment: In vitro cell proliferation assay (MTT); assay type: cell-based; conditions: Homo sapiens, NCI-H1975, 72 h
Method: as §4

HT29 = experiment: In vitro cell proliferation assay (MTT); assay type: cell-based; conditions: Homo sapiens, HT-29, 72 h
Method: as §4

HUVEC = experiment: In vitro cell proliferation assay (MTT); assay type: cell-based; conditions: Homo sapiens, 72 h
Method: as §4

HepG2 = experiment: In vitro cell proliferation assay (MTT); assay type: cell-based; conditions: Homo sapiens, HepG2, 72 h
Method: as §4

HuH7 = experiment: In vitro cell proliferation assay (MTT); assay type: cell-based; conditions: Homo sapiens, Huh-7, 72 h
Method: as §4

T7 sequence (P21802 22-821): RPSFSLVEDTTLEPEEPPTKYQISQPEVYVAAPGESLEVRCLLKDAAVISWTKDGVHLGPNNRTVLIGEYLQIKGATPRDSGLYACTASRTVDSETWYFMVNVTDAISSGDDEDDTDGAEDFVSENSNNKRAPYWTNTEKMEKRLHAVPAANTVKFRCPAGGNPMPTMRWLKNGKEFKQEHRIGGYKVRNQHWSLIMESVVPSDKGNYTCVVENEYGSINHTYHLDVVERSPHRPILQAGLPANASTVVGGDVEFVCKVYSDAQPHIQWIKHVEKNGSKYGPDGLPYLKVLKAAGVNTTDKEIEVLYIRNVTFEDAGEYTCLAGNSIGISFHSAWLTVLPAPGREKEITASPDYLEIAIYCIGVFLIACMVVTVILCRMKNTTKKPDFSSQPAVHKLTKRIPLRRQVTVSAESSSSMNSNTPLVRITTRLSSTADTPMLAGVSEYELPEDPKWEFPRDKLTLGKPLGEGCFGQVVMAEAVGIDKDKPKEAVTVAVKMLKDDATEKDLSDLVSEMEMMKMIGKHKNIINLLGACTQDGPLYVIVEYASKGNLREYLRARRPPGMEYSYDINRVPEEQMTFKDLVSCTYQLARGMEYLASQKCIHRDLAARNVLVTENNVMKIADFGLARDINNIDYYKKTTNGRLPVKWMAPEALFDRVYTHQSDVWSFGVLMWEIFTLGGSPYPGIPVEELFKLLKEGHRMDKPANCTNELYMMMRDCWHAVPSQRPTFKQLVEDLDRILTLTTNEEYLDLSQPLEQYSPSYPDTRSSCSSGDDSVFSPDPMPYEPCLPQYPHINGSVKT
T3 sequence (P15056 whole entry): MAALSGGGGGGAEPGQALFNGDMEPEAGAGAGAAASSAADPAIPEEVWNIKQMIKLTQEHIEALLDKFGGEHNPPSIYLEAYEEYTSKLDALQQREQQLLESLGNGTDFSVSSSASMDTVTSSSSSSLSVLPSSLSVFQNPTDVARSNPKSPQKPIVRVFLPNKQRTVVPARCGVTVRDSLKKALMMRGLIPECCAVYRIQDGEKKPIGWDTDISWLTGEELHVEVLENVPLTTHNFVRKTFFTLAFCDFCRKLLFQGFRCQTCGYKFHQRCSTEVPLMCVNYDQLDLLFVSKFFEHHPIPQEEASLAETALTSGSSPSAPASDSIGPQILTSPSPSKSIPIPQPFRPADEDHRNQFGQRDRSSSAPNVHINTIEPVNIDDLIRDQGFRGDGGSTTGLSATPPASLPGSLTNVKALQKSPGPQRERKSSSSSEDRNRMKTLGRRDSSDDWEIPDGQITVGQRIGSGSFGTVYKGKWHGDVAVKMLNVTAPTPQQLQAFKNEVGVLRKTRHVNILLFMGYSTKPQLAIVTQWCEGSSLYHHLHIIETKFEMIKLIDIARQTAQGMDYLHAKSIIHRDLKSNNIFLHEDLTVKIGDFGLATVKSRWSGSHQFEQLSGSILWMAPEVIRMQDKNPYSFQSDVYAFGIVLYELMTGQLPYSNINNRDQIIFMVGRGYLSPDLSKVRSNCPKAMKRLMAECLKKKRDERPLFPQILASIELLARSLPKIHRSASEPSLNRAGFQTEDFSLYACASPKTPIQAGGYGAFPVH
T5 sequence (P00533 25-1210 T790M/L858R): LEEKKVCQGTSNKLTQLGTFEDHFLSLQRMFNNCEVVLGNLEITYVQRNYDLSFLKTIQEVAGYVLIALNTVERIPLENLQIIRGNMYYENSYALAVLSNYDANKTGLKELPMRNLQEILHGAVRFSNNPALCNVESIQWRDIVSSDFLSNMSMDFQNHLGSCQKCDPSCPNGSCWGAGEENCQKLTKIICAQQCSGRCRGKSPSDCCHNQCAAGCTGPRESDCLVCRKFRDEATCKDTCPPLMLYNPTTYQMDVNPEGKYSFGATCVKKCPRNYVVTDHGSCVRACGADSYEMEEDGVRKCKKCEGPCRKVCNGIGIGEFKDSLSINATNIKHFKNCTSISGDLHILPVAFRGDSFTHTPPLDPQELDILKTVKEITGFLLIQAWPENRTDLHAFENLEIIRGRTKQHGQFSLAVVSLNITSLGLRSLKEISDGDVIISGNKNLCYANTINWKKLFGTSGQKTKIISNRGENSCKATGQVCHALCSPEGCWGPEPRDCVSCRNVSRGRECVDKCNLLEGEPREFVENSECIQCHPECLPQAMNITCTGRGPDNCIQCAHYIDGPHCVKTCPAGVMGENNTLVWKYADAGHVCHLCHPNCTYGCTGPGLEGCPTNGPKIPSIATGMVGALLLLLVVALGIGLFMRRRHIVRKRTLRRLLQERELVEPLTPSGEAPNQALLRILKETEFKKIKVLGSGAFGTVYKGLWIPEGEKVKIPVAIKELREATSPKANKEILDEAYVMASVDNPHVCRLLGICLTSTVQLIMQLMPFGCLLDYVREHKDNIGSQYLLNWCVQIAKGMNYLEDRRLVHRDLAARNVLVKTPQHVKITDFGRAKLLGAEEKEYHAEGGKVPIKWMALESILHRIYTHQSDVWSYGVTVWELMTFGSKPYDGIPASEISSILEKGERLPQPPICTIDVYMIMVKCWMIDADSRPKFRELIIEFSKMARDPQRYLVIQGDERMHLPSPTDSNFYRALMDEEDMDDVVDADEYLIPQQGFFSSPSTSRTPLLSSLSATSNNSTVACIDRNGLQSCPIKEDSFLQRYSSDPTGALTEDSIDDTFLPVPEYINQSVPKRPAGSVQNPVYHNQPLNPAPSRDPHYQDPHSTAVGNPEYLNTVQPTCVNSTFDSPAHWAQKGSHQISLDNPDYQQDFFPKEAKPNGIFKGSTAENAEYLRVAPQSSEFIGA
T10 sequence (P09619 33-1106): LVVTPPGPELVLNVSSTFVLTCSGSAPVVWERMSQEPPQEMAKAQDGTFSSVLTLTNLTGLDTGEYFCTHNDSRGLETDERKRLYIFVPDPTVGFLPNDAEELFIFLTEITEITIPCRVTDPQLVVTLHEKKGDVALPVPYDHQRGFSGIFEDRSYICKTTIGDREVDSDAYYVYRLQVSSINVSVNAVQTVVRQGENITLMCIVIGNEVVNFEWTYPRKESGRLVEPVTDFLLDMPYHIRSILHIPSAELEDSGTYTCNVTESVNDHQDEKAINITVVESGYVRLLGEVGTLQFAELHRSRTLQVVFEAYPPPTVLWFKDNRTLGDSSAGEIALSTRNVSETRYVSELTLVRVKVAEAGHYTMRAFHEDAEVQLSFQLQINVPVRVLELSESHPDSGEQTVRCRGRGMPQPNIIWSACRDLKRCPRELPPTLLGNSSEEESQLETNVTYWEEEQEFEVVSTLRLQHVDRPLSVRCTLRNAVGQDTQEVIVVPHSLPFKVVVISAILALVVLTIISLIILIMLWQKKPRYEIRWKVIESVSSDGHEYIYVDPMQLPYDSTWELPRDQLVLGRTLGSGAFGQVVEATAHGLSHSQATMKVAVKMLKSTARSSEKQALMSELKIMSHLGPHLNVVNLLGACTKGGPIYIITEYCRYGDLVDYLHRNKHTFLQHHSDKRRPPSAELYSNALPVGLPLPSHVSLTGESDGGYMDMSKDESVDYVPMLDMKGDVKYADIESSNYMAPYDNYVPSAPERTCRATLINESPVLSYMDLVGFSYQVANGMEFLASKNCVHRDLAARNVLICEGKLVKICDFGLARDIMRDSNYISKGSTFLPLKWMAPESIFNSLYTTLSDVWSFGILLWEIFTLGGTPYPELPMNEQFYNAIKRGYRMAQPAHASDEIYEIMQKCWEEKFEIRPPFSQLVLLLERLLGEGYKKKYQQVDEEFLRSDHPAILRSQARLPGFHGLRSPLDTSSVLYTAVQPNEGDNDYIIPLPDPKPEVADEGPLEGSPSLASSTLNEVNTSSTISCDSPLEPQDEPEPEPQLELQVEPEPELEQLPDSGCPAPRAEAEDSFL
T11 sequence (P12931 whole entry): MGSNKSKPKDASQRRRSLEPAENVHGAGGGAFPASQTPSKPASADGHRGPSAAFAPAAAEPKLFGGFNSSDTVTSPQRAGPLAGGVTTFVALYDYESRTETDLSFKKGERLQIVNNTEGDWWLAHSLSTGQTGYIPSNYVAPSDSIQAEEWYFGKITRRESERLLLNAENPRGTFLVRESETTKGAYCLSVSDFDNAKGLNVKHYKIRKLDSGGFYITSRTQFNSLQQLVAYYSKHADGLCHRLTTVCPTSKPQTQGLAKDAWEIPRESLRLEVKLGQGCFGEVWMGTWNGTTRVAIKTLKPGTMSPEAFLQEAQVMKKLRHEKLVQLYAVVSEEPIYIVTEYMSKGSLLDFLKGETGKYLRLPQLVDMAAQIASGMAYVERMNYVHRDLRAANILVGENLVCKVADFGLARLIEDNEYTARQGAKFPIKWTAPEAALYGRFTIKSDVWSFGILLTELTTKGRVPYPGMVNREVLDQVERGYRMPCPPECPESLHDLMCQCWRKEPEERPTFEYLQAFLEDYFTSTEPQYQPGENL

Compound | inhibition at 10 µM (ABL) | inhibition at 10 µM (ABL T315I) | inhibition at 0.1 µM (BRAF) | inhibition at 0.1 µM (EGFR (ErbB1)) | inhibition at 0.1 µM (EGFR (ErbB1) T790M L858R) | inhibition at 0.1 µM (FGFR1) | inhibition at 0.1 µM (FGFR2) | inhibition at 0.1 µM (KDR (VEGFR2)) | inhibition at 0.1 µM (PDGFRA (PDGFR alpha)) | inhibition at 0.1 µM (PDGFRB) | inhibition at 0.1 µM (SRC) | inhibition at 0.1 µM (VEGFR1) | EC50 (A549) | EC50 (BxPC-3) | EC50 (H1975) | EC50 (HT29) | EC50 (HUVEC) | EC50 (HepG2) | EC50 (HuH7)
COC(=O)c1cc2cc(NCc3cc(NC(=O)Cc4cccc(C(F)(F)F)c4)ccc3C)cnc2[nH]1 [OR0601] | ≥ 50% | < 50% | ≥ 50% | < 50% | < 50% | < 50% | < 50% | < 50% | ≥ 50% | < 50% | ≥ 50% | < 50% | 0.1 to 1 µM | ≥ 1 µM | ≥ 1 µM | 0.1 to 1 µM | ≤ 0.1 µM | ≤ 0.1 µM | 
COC(=O)c1cc2cc(NCc3cc(NC(=O)c4ccc(C(F)(F)F)nc4)ccc3C)cnc2[nH]1 [OR0865] |  |  | ≥ 50% | ≥ 50% |  |  | < 50% | < 50% |  |  |  |  |  |  |  |  | 0.1 to 1 µM | 0.1 to 1 µM | ≥ 1 µM
COC(=O)c1cc2cc(NCc3cc(NC(=O)c4ccc(O)c(C(F)(F)F)c4)ccc3C)cnc2[nH]1 [OR0605] | ≥ 50% | < 50% | < 50% | ≥ 50% | < 50% | < 50% | < 50% | < 50% | ≥ 50% | < 50% | ≥ 50% | < 50% |  | ≥ 1 µM |  |  |  |  | 0.1 to 1 µM
COC(=O)c1cc2cc(NCc3cc(NC(=O)c4ccc(CN5CCOCC5)c(C(F)(F)F)c4)ccc3C)cnc2[nH]1 [OR0598] | ≥ 50% | ≥ 50% | < 50% | ≥ 50% | < 50% | < 50% | < 50% | < 50% | ≥ 50% | < 50% | ≥ 50% | < 50% | 0.1 to 1 µM | 0.1 to 1 µM | 0.1 to 1 µM | 0.1 to 1 µM | ≤ 0.1 µM | 0.1 to 1 µM | 
COC(=O)c1cc2cc(NCc3cc(NC(=O)c4ccc(CNCCN5CCN(C)CC5)c(C(F)(F)F)c4)ccc3C)cnc2[nH]1 [OR0637] | ≥ 50% | ≥ 50% | ≥ 50% | ≥ 50% | ≥ 50% | < 50% | < 50% | ≥ 50% | ≥ 50% | ≥ 50% | ≥ 50% | < 50% | 0.1 to 1 µM | ≥ 1 µM | ≥ 1 µM | 0.1 to 1 µM | 0.1 to 1 µM | 0.1 to 1 µM | 
COC(=O)c1cc2cc(NCc3cc(NC(=O)c4ccc(CN5CCN(C)CC5)c(C(F)(F)F)c4)ccc3F)cnc2[nH]1 [OR0816] |  |  | < 50% | ≥ 50% |  |  | ≥ 50% | ≥ 50% | ≥ 50% |  | ≥ 50% |  |  |  |  |  | ≤ 0.1 µM | 0.1 to 1 µM | 0.1 to 1 µM
COC(=O)c1cc2cc(NCc3cc(NC(=O)c4cncc(C)c4)ccc3C)cnc2[nH]1 [OR0867] |  |  | ≥ 50% | ≥ 50% |  |  | < 50% | ≥ 50% |  |  |  |  |  |  |  |  | ≥ 1 µM | 0.1 to 1 µM | ≥ 1 µM
COC(=O)c1cc2cc(NCc3cc(NC(=O)c4cccc(Br)c4)ccc3C)cnc2[nH]1 [OR0608] | ≥ 50% | < 50% | ≥ 50% | < 50% | < 50% | < 50% | < 50% | ≥ 50% | ≥ 50% | < 50% | ≥ 50% | < 50% | 0.1 to 1 µM | 0.1 to 1 µM | ≥ 1 µM | ≥ 1 µM | 0.1 to 1 µM | 0.1 to 1 µM | 
